# Source: US9732063B2, “Kinase inhibitors” (RESPIVERT LIMITED, priority 2012, dated 2017)
# Where two headings read alike, the source gives them in different places.
# Columns and labels:
# p38 MAPKα = p38 MAPKα (Homo sapiens (Human), UniProt Q16539); assay: p38 MAPKα enzyme inhibition (Z-LYTE FRET, Method 2); format: biochemical
# Method: (§1) The enzyme inhibitory activities of compounds disclosed herein are determined by FRET using synthetic peptides labelled with both donor and acceptor fluorophores (Z-LYTE, Invitrogen Ltd., Paisley, UK).
# The inhibitory activities of test compounds against the p38 MAPKα isoform (MAPK14: Invitrogen), are evaluated indirectly by determining the level of activation/phosphorylation of the down-stream molecule, MAPKAP-K2. The p38 MAPKα protein (80 ng/mL, 2.5 μL) is mixed with the test compound (2.5 μL of either 4 μg/mL, 0.4 μg/mL, 0.04 μg/mL or 0.004 μg/mL) for 2 hr at RT. […] The mixture is incubated for 1 hr at RT. Development reagent (protease, 5 μL) is added for 1 hr prior to detection in a fluorescence microplate reader (Varioskan® Flash, ThermoFisher Scientific).
# (§2) In all cases, the site-specific protease cleaves non-phosphorylated peptide only and eliminates the FRET signal. Phosphorylation levels of each reaction are calculated using the ratio of coumarin emission (donor) over fluorescein emission (acceptor), for which high ratios indicate high phosphorylation and low ratios indicate low phosphorylation levels.
# c-Src = c-Src (Homo sapiens (Human), UniProt P12931); assay: c-Src enzyme inhibition (Z-LYTE FRET); format: biochemical
# Method: as §1
# (§3) The relevant enzyme (3000 ng/mL or 2000 ng/mL respectively, 2.5 μL) is incubated with the test compound (either 4 μg/mL, 0.4 μg/mL, 0.04 μg/mL, or 0.004 μg/mL, 2.5 μL each) for 2 hr at RT. The FRET peptides (8 μM, 2.5 μL), and appropriate ATP solutions (2.5 μL, 800 μM for c-Src, and 60 μM ATP for Syk) are then added to the enzymes/compound mixtures and incubated for 1 hr. Development reagent (protease, 5 μL) is added for 1 hr prior to detection in a fluorescence microplate reader (Varioskan® Flash, ThermoFisher Scientific).
# as §2
# Syk = Syk (Homo sapiens (Human), UniProt P43405); assay: Syk enzyme inhibition (Z-LYTE FRET); format: biochemical
# Method: as §1, §3, §2
# GSK3α = GSK3α (Homo sapiens (Human), UniProt P49840); assay: GSK 3α enzyme inhibition (Z-LYTE FRET, Method 2); format: biochemical
# Outline: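 Z-LYTE FRET: GSK3α preincubated with compound 2 h at RT, then FRET peptide and ATP added (stocks 8 μM and 40 μM) for 1 h, followed by 1 h protease development. Compound stocks 4–0.004 μg/mL; phosphorylation from coumarin/fluorescein emission ratio.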
# d-U937 cells = assay: LPS-induced TNFα/IL-8 release in d-U937 cells; format: cell-based; conditions: Homo sapiens
# Method: Cells are pre-incubated with final concentrations of test compound for 2 hr and are then stimulated with 0.1 μg/mL of LPS (from E. coli: O111:B4, Sigma) for 4 hr. The supernatant is collected for determination of TNFα and IL-8 concentrations by sandwich ELISA (Duo-set, R&D systems). […] The relative 50% effective concentration (REC50) is determined from the resultant concentration-response curve. The inhibition of IL-8 production is calculated at each concentration of test compound by comparison with vehicle control.
# PBMCs [1] = assay: LPS-induced TNFα/IL-8 release in PBMC cells; format: cell-based; conditions: Homo sapiens, read-out: IC50 Values for Inhibition of Cytokine Release PBMCs IL-8
# Outline: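 Healthy-donor PBMCs, isolated by density gradient, were pretreated with compound for 2 h and then stimulated with 1 ng/mL E. coli O111:B4 LPS for 24 h at 37 °C, 5% CO2. Supernatant IL-8 and TNFα were quantified by sandwich ELISA.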
# PBMCs [2] = assay: IL-2 and IFN gamma release in CD3/CD28 stimulated PBMC cells; format: cell-based; conditions: Homo sapiens
# Outline: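 They were cultured with compound for 3 days. IL-2 and IFN-γ in supernatants were quantified by sandwich ELISA, and IC50 was derived from the dose-response curve.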
# HT29 cells = assay: IL-1β-induced IL-8 release in HT29 cells; format: cell-based; conditions: Homo sapiens
# Method: HT29 cells, a human colon adenocarcinoma cell line, are plated in a 96 well plate (24 hrs) and pre-treated with compounds at the desired concentration for 2 hours before addition of 5 ng/mL of IL-1β (Abcam) for 24 hours. Supernatants are harvested for IL-8 quantification by Sandwich ELISA (Duo-set, R&D System). The IC50 is determined from the dose response curve.
# TNBS-induced colitis = conditions: for LP inflammation / Ulcer grade: oral gavage BID, conducted over 2 days, mice; for inflammatory cell infiltrate in the reticular and laminar propria zone / ulcer grade and epithelial repair compared to the vehicle control: dosed orally at either 1 or 5 mg/kg
# Method: On Day 0 of the study TNBS (200 μL) is administered intra-colonically via a plastic catheter followed by BID dosing of the vehicle, reference or test compound for 2 or 4 days. During the study animals are weighed every day and stool observations are made and recorded as a score, based on stool consistency. At the time of sacrifice on Day 2 (or Day 4) the large intestine is removed and the length and weight recorded. Sections of the colon are taken for either MPO analysis to determine neutrophil infiltration or for histopathology involving scoring to determine disease severity.
# [3] = dU937, read-out: IC50 Values for Inhibition of Cytokine Release dU937 cells IL-8
# [4] = dU937, read-out: IC50 Values for Inhibition of Cytokine Release dU937 cells TNFα
# [5] = read-out: IC50 Values for Inhibition of Cytokine Release PBMCs IL-2
# [6] = HT-29, read-out: IC50 Values for Inhibition of Cytokine Release HT29 cells IL-8
# [7] = read-out: IC50 Values for Inhibition of Cytokine Release PBMCs IFNγ
# Chain of GSK3α (P49840 whole entry): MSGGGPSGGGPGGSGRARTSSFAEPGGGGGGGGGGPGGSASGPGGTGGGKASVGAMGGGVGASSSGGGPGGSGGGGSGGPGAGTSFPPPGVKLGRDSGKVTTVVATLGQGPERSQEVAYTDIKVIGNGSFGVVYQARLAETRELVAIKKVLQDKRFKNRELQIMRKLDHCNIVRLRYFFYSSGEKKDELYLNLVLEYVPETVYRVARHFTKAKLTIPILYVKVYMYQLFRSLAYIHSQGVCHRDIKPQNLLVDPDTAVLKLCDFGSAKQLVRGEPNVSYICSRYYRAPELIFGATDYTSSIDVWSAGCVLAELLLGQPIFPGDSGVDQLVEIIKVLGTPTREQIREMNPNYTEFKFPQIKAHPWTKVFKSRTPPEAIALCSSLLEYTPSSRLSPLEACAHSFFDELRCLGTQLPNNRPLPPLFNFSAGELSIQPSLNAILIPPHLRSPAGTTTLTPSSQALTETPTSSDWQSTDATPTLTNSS
# Chain of c-Src (P12931 whole entry, looked up): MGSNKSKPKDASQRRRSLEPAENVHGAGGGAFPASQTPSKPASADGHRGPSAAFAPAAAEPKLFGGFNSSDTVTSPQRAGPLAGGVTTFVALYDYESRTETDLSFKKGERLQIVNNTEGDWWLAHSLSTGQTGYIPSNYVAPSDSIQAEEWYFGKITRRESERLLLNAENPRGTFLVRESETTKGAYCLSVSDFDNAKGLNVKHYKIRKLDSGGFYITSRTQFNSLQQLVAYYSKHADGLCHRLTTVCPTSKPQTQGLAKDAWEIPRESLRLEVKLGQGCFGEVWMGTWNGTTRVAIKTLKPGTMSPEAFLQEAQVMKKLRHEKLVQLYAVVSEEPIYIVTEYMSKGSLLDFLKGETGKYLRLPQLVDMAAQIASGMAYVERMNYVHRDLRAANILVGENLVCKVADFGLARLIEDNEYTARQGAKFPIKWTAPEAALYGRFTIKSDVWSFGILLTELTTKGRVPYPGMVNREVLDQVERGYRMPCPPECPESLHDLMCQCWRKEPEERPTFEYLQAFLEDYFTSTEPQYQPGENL
# Chain of p38 MAPKα (Q16539 whole entry): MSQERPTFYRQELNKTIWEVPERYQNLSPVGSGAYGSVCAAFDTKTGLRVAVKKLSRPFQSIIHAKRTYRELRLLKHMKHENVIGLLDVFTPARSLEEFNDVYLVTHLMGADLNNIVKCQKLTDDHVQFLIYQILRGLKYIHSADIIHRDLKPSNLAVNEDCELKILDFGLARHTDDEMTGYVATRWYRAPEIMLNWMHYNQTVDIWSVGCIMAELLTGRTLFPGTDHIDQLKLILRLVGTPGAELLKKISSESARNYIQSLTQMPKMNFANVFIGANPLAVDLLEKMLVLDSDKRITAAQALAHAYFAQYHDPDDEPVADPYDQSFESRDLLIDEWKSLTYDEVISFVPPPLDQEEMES
Compound,IC50 (p38 MAPKα) [µM],IC50 (c-Src) [µM],IC50 (Syk) [µM],IC50 (GSK3α) [µM],IC50 (d-U937 cells; [3]) [µM],IC50 (d-U937 cells; [4]) [µM],IC50 (PBMCs [1]) [µM],IC50 (PBMCs [2]; [5]) [µM],IC50 (HT29 cells; [6]) [µM],IC50 (PBMCs [2]; [7]) [µM],also measured
"C#Cc1cccc(Nc2nccc(Oc3ccc(NC(=O)Nc4cc(C(C)(C)C)nn4-c4ccc(OC)nc4)c4ccccc34)n2)c1 [Example 1, 1-(3-(tert-Butyl)-1-(6-methoxypyridin-3-yl)-1H-pyrazol-5-yl)-3-(4-((2-((3-ethynylphenyl)-amino)pyrimidin-4-yl)oxy)naphthalen-1-yl)urea]",0.316,0.028,0.077,> 10,,,,,,,"IC50 (d-U937 cells; dU937, LPS-stimulated d-U937 cells, method describes REC50 relative to BIRB796, read-out: IC50 Values for Inhibition of Cytokine Release dU937 cells TNFα): 0.0036 µM; IC50 (d-U937 cells; dU937, LPS-stimulated d-U937 cells, read-out: IC50 Values for Inhibition of Cytokine Release dU937 cells IL-8): 0.0021 µM; IC50 (PBMCs [1]; LPS-stimulated PBMCs): 0.0115 µM; IC50 (PBMCs [2]; CD3/CD28 stimulated PBMCs, read-out: IC50 Values for Inhibition of Cytokine Release PBMCs IL-2): 0.0398 µM; IC50 (HT29 cells; HT-29, IL-1β-stimulated HT29 cells, read-out: IC50 Values for Inhibition of Cytokine Release HT29 cells IL-8): 0.0174 µM"
COc1ccc(-n2nc(C(C)(C)C)cc2NC(=O)Nc2ccc(Oc3ccnc(Nc4cccc(N=S(C)(C)=O)c4)n3)c3ccccc23)cn1 [Example 2],0.081,0.008,0.015,1.85,0.0052,0.0165,0.0053,0.0511,0.0185,,
"COc1ccc(-n2nc(C(C)(C)C)cc2NC(=O)Nc2ccc(Oc3ccnc(Nc4cccc(OS(C)(=O)=O)c4)n3)c3ccccc23)cn1 [Example 3, 3-(4-((4-(3-(3-(tert-Butyl)-1-(6-methoxypyridin-3-yl)-1H-pyrazol-5-yl)ureido)naphthalen-1-yl)oxy)pyrimidin-2-yl)amino)phenyl methanesulfonate]",0.028,,0.066,2.54,,0.0003,0.0015,0.0099,0.0022,0.0012,
"COCCOCCOCCOc1cccc(Nc2nccc(Oc3ccc(NC(=O)Nc4cc(C(C)C)nn4-c4ccc(C)cc4)c4ccccc34)n2)c1 [Example 9, 1-(3-Isopropyl-1-(P-tolyl)-1H-pyrazol-5-yl)-3-(4-((2-((3-(2-(2-(2-methoxyethoxy)ethoxy)-ethoxy)phenyl)amino)pyrimidin-4-yl)oxy)naphthalen-1-yl)urea]",0.026,0.154,> 1,3.72,0.0028,0.0015,0.0031,,0.0045,,
"Cc1ccc(-n2nc(C(C)C)cc2NC(=O)Nc2ccc(Oc3ccnc(Nc4cccc(OS(C)(=O)=O)c4)n3)c3ccccc23)cc1 [Example 11, 3-(4-((4-(3-(3-Isopropyl-1-(p-tolyl)-1H-pyrazol-5-yl)ureido)naphthalen-1-yl)oxy)pyrimidin-2-yl)amino)phenyl methanesulfonate]",0.05,0.02,> 0.622,8.65,0.0014,0.0009,0.0036,0.151,0.0053,,
"COc1cc(Nc2nccc(Oc3ccc(NC(=O)Nc4cc(C(C)C)nn4-c4ccc(C)cc4)c4ccccc34)n2)cc(OS(C)(=O)=O)c1 [Example 12, 3-((4-((4-(3-(3-Isopropyl-1-(p-tolyl)-1H-pyrazol-5-yl)ureido)naphthalen-1-yl)oxy)pyrimidin-2-yl)amino)-5-methoxyphenyl methanesulfonate]",0.422,0.039,0.238,,,0.0004,0.0028,0.0248,0.0043,0.0047,
"COc1cc(Nc2nccc(Oc3ccc(NC(=O)Nc4cc(C(C)C)nn4-c4ccc(C)cc4)c4ccccc34)n2)cc(S(=O)(=O)C2CC2)c1 [Example 18, 1-(4-((2-((3-(Cyclopropylsulfonyl)-5-methoxyphenyl)amino)pyrimidin-4-yl)oxy)naphthalen-1-yl)-3-(3-isopropyl-1-(p-tolyl)-1H-pyrazol-5-yl)urea]",0.102,0.027,0.358,2.9,,,0.0021,0.0846,0.0062,,LP inflammation (TNBS-induced colitis; 1 mg/kg): 2.8 ± 0.4; Ulcer grade (TNBS-induced colitis; 1 mg/kg): 3.3 ± 0.4; LP inflammation (TNBS-induced colitis; 5 mg/kg): 2.6 ± 0.3; Ulcer grade (TNBS-induced colitis; 5 mg/kg): 3.0 ± 0.5; inflammatory cell infiltrate in the reticular and laminar propria zone (TNBS-induced colitis): marked reduction; ulcer grade and epithelial repair compared to the vehicle control (TNBS-induced colitis): marked improvements
COc1cc(Nc2nccc(Oc3ccc(NC(=O)Nc4cc(C(C)C)nn4-c4ccc(C)cc4)c4ccccc34)n2)cc(SCCO)c1 [Example 22],0.114,0.047,0.134,,,,0.0023,0.0307,0.0051,,LP inflammation (TNBS-induced colitis; 1 mg/kg): 2.6 ± 0.3; Ulcer grade (TNBS-induced colitis; 1 mg/kg): 2.8 ± 0.4; LP inflammation (TNBS-induced colitis; 5 mg/kg): 3.8 ± 0.3; Ulcer grade (TNBS-induced colitis; 5 mg/kg): 3.7 ± 0.4; inflammatory cell infiltrate in the reticular and laminar propria zone (TNBS-induced colitis): marked reduction; ulcer grade and epithelial repair compared to the vehicle control (TNBS-induced colitis): marked improvements
"COCCOCCOCCOc1cc(Nc2nccc(Oc3ccc(NC(=O)Nc4cc(C(C)(C)C)nn4-c4ccc(C)cc4)c4ccccc34)n2)cc(OC)c1 [Example 37, 1-(3-(tert-Butyl)-1-(p-tolyl)-1H-pyrazol-5-yl)-3-(4-((2-((3-methoxy-5-(2-(2-(2-methoxy-ethoxy)ethoxy)ethoxy)phenyl)amino)pyrimidin-4-yl)oxy)naphthalen-1-yl)urea]",0.153,0.011,0.036,6.36,0.0017,,0.0018,0.0348,0.0017,0.0015,
"COCCOCCOCCOc1cc(Nc2nccc(Oc3ccc(NC(=O)Nc4cc(C(C)(C)C)nn4-c4ccc(OC)nc4)c4ccccc34)n2)cc(OC)c1 [Example 38, 1-(3-(tert-Butyl)-1-(6-methoxypyridin-3-yl)-1H-pyrazol-5-yl)-3-(4-((2-((3-methoxy-5-(2-(2-(2-methoxyethoxyl)ethoxy)ethoxy)phenyl)amino)pyrimidin-4-yl)oxy)naphthalen-1-yl)urea]",0.132,0.01,0.025,5.45,0.001,,0.0015,0.0409,0.0018,0.0013,
"COCCOCCOCCOc1cc(Nc2nccc(Oc3ccc(NC(=O)Nc4cc(C(C)(C)C)nn4-c4ccc(N(C)C)cc4)c4ccccc34)n2)cc(OC)c1 [Example 63, 1-(3-(tert-Butyl)-1-(4-(dimethylamino)phenyl)-1H-pyrazol-5-yl)-3-(4-((2-((3-methoxy-5-(2-(2-(2-methoxyethoxy)ethoxy)ethoxy)phenyl)amino)pyrimidin-4-yl)oxy)naphthalen-1-yl)urea]",0.187,0.013,,4.82,0.0006,0.0004,0.002,0.0762,0.002,0.0015,
